Reference: publication PMC10816934, “Targeting the Melanocortin 1 Receptor in Melanoma: Biological Activity of α-MSH–Peptide Conjugates” (International Journal of Molecular Sciences, 2024)
Square brackets hold non-standard residues; d marks the D form. Peptide text beside a SMILES is read from it. * marks the point of attachment. Daunorubicin(13-NOCH2CO) = COc1cccc2c1C(=O)c1c(O)c3c(c(O)c1C2=O)C[C@@](O)(C(C)=NOCC(=O)*)C[C@@H]3O[C@H]1C[C@H](N)[C@H](O)[C@H](C)O1; Nle = CCCC[C@H](N)C(=O)O

How the values were obtained:
[1] = tested on: WM983B human melanoma cell line; assay: In vitro antiproliferative activity, MTT assay; assay type: cell-based; conditions: ratio of IC50 values of free Dau and conjugate
From the text: (§1) The following cell cultures were used for the biological evaluation of the synthetic melanoma-specific peptide–drug (Dau–α-MSH) conjugates: A2058 (human skin melanoma, CVCL_1059), M24 (human metastatic skin melanoma, CVCL_D032), OCM-1 (human ocular choroidal melanoma-1, CVCL_6934), OCM-3 (human ocular choroidal melanoma-3, CVCL_6937), WM983A (human metastatic skin melanoma, CVCL_6808), WM983B (human metastatic skin melanoma CVCL_6809), SK-MEL-202 (human skin melanoma, ATCC HTB-68) and B16 (mouse melanoma, ATCC: CRL-6475). Cells were maintained in RPMI-1640 (Lonza, Basel, Switzerland), supplied with 10% FBS (fetal bovine serum; BioSera, Nuaille, France), L-glutamine, and 1% penicillin–streptomycin (from 10 000 units penicillin and 10 mg streptomycin/mL, Gibco, Dublin, Ireland) at 37 °C in a 5% CO2 atmosphere. No mycoplasma contamination was detected in the cell cultures.
(§2) The in vitro cytostatic effect of Dau–α-MSH conjugates was determined by two different assays. The full-length Dau–α-MSH conjugates were investigated by MTT assay using human and murine melanoma cell cultures. For determination of the cytostatic effect of these conjugates, the cells were treated with the compounds at 0.8–100 μM concentration range dissolved in the corresponding serum-free media for 24 h. After incubation, the treating solutions were removed, the cells were washed two times with serum-free medium and cultured for 48 h in the appropriate serum-containing cell culture medium. On the fourth day, the MTT assay was carried out to determine the IC50 values of the compounds. IC50 is the concentration that inhibits cell proliferation by 50%. Nonlinear regression analysis was performed with Prism 6 software (GraphPad, La Jolla, CA, USA) to generate sigmoidal dose–response curves, from which the 50% inhibitory concentration (IC50) values of the compounds were calculated and presented as micromolar (µM) units. The experiments were done in triplicate, and each experiment was repeated twice.

[2] = tested on: M24 human melanoma cell line; assay: In vitro antiproliferative activity, MTT assay; assay type: cell-based; conditions: ratio of IC50 values of free Dau and conjugate
From the text: as §1, §2

[3] = tested on: A2058 human melanoma cell line; assay: In vitro antiproliferative activity, MTT assay; assay type: cell-based; conditions: ratio of IC50 values of free Dau and conjugate
From the text: as §1, §2

[4] = tested on: subcutaneous B16 murine melanoma in C57BL/6 male mice; assay: In vivo antitumor effect, subcutaneous B16 melanoma allograft; conditions: conjugates 10 mg Dau content/kg
Protocol: In the first experiment, B16 murine melanoma cells were subcutaneously (s.c.) injected into side of the latero-abdominal region of 35 C57BL/6 male mice (20–28 g), which murine strain is syngeneic for the B16 melanoma tumor cell line [59, 60], 6.5 ×·10^5 cells in a volume of 200 µL M199 medium was inoculated per animal. Mice were randomized in a stratified procedure considering two main factors. The primary factor was to obtain groups with the most equal tumor sizes, the secondary factor was to have groups in which the weight of mice are the most equal. The treatment started 9 days after cell inoculation when average tumor volume was 30 mm^3. Compounds were dissolved in saline solution (Teva, Debrecen, Hungary), and administered via i.p. injection in a volume of 0.1 mL per 10 g of bodyweight. […] Animal weight and tumor volumes were measured initially when the treatment started and at periodic intervals following treatment. A digital caliper was used to measure the longest (a) and the shortest diameter (b) of a given tumor. The tumor volume was calculated using the formula V = ab^2 × π/6, whereby a and b represent the measured parameters (length and width). Termination of the experiment was 20 days after cell inoculation, i.e., 12 days after treatment started, since the average volume of the tumors in the control group reached over 1800 mm^3. The mice from all groups were sacrificed by cervical dislocation after which their tumors were harvested and weighed for antitumor effect assessment. Antitumor effect of treatments was evaluated measuring the tumor volume and calculating the percentage of how much the tumor volume grew in comparison to the starting tumor volume which was set arbitrarily for all tumors as 100% at the start of treatment.

[5] = tested on: OCM-1 human uveal melanoma tumor in male NOD-SCID mice; assay: In vivo tumor growth inhibition, OCM-1 xenograft; set-up: species or system mouse; conditions: for Normalized liver weight, value line 1 / Normalized liver weight, value line 2 / Normalized liver weight, value line 3 / Normalized liver weight, value line 4 / Normalized liver weight, value line 5 / Normalized liver weight, value line 6 / Normalized liver weight, value line 7 / Normalized liver weight, line printed as "ave": Table S2; for Normalized liver weight, value line 1 / Normalized liver weight, value line 2 / Normalized liver weight, value line 3 / Normalized liver weight, value line 4 / Normalized liver weight, value line 5 / Normalized liver weight, value line 6 / Normalized liver weight, value line 7: single animal; for Normalized liver weight, line printed as "ave": value line 8
Protocol: In the next experiment, the murine xenograft melanoma model establishment studies were performed using 8–12-week-old male NOD-SCID mice. For selection of the most suitable tumor model, three cell lines were then inoculated subcutaneously, OCM-1, SK-MEL-202, and WM983A. Cells were injected in a 0.1 mL RPMI-1640 basic medium in a concentration of 1.5·× 10^6 cells/mL, and the tumor growth and weight of mice were monitored 2–3 times per week. Subsequently, the antitumor effects of the Dau–α-MSH conjugates were determined in a mouse xenograft melanoma model selected as described above. Once the tumor volume reached 60 mm^3, mice were randomized and assigned to different groups for each treatment: 0.9% saline as a control, free daunomycin, Conj2 and Conj4. Treatments were injected intraperitoneally every fifth day, three times in total (daunomycin dosage of 5 mg/kg in case of Conj2, 10 mg/kg for Conj4, respectively, which was determined based on the toxicity tests, and 1 mg/kg were used for free drug–MTD). The weight and tumor size of mice were monitored during the whole experiment. On Day 33, mice were euthanized, and the primary tumor, heart, lung, liver, and spleen were harvested and stored in 4% formalin (Molar Chemicals, Halásztelek, Hungary). Liver weight was measured for the calculation of the toxicity of conjugates and daunomycin.

[6] = tested on: B16 murine melanoma cell line; assay: In vitro antiproliferative activity, MTT assay; assay type: cell-based, mouse; conditions: ratio of IC50 values of free Dau and conjugate
From the text: as §1, §2

SK-MEL-202 cells = assay: In vitro cytostatic effect, PrestoBlue assay; assay type: cell-based, human
From the text: as §1
(§3) The in vitro cytostatic effect of the Dau–α-MSH conjugate with optimized sequence (Conj4) was investigated and compared with Conj2 by PrestoBlue assay using human melanoma cell cultures with different origins. For determination of the cytostatic effect of the conjugates, the cells were treated with the compounds at 0.003–200 μM concentration range dissolved in the corresponding serum-free medium for 72 h. After the treatment, the PrestoBlue assay (purchased from Invitrogen (Waltham, MA, USA) was carried out to determine the IC50 values of the compounds. Based on the IC50 values, we also determined the targeting index (TI) of the conjugates using the following equation [58]: TI=IC50neg/IC50posconjugate/IC50neg/IC50posfree drug

A2058 cells = assay: In vitro cytostatic effect, PrestoBlue assay; assay type: cell-based, human
From the text: as §1, §3

OCM-3 cells = assay: In vitro cytostatic effect, PrestoBlue assay; assay type: cell-based, human
From the text: as §1, §3

OCM-1 cells = assay: In vitro cytostatic effect, PrestoBlue assay; assay type: cell-based, human
From the text: as §1, §3

WM983A cells = assay: In vitro cytostatic effect, PrestoBlue assay; assay type: cell-based, human
From the text: as §1, §3

WM983B cells = assay: In vitro cytostatic effect, PrestoBlue assay; assay type: cell-based, human
From the text: as §1, §3

healthy male BALB/c mice = assay: In vivo acute toxicity study on healthy mice; set-up: species or system mouse
Protocol: To determine toxicity of conjugates on healthy animals, in vivo acute toxicity study of Dau, Conj2 and Conj4 was performed. In the first experiment, adult BALB/c male mice (29–31 g) were exposed by one injection of the conjugate at the start of experiment, by intraperitoneal (i.p.) administration. A dose of 25 mg Dau content/kg was used, in a volume of 0.1 mL per mice (3 mice per condition). In the second in vivo experiment, NOD-SCID mice were exposed by four injections of the conjugates at the start of experiment, by intraperitoneal (i.p.) administration. Doses of 5, 10 and 15 mg Dau content/kg were used for the toxicity assay, at a volume of 0.1 mL per mice (3 mice per condition). The animals were kept under the conditions as described above.

[7] = change compared to control group, minus = inhibition, free Dau 1 mg/kg

With `CCCC[C@H](NC(=O)[C@H](CO)NC(=O)[C@H](Cc1ccc(O)cc1)NC(=O)[C@H](CO)NC(C)=O)C(=O)N[C@@H](CCC(=O)O)C(=O)N[C@@H](Cc1c[nH]cn1)C(=O)N[C@@H](Cc1ccccc1)C(=O)N[C@@H](CCCNC(=N)N)C(=O)N[C@@H](Cc1c[nH]c2ccccc12)C(=O)NCC(=O)N[C@@H](CCCCNC(=O)CON=C(C)[C@]1(O)Cc2c(O)c3c(c(O)c2[C@@H](O[C@H]2C[C@H](N)[C@H](O)[C@H](C)O2)C1)C(=O)c1c(OC)cccc1C3=O)C(=O)N1CCC[C@H]1C(=O)N[C@H](C(N)=O)C(C)C` [Conj2, Ac-SYSNleEHFRWGK(Dau=Aoa)PV-NH2] the “Relative Potency” value [1] was 0.0063, the “Relative Potency” value [2] was 0.0103 and the “Relative Potency” value [3] was 0.0125. The “Tumor growth inhibition based on tumor weight, in comparison to the control group” value ([4]; after termination (day 20), free Dau 1 mg/kg i.p.) was 38.6%, the “Tumor weigh in % (Table S1)” value ([4]; change compared to control group, minus = decrease, free Dau 1 mg/kg) was -38.6% and the “Tumor volume in % (Table S1)” value [4, 7] was -75.4%. For the same compound, the “Tumor volume in mm3 (Table S1)” value [4, 7] was -37.8%, the “Growth of the tumor reduced to % of the control size” value ([5]; Day 33, 5 mg/kg Dau content i.p., three treatments (days 15, 19, 23), p: 0.0056) was 55% and the “Normalized liver weight, value line 1” value [5] was 3.77%. For the same compound, the “Normalized liver weight, value line 2” value [5] was 5.10%, the “Normalized liver weight, value line 3” value [5] was 4.35% and the “Normalized liver weight, value line 4” value [5] was 4.14%. The “Normalized liver weight, value line 5” value [5] was 4.73%, the “Normalized liver weight, value line 6” value [5] was 4.15% and the “Normalized liver weight, value line 7” value [5] was 4.90%. For the same compound, the “Normalized liver weight, line printed as "ave"” value [5] was 4.55%, the “Relative Potency” value [6] was 0.0093 and the “Targeting Index (TI)” value (SK-MEL-202 cells; SK-MEL-202 versus A2058, TI = (IC50neg/IC50pos conjugate)/(IC50neg/IC50pos free drug)) was 2.74. For the same compound, the “Targeting Index (TI)” value (A2058 cells; A2058 (reference cell line), TI = (IC50neg/IC50pos conjugate)/(IC50neg/IC50pos free drug)) was 1.00, the “Targeting Index (TI)” value (OCM-3 cells; OCM-3 versus A2058, TI = (IC50neg/IC50pos conjugate)/(IC50neg/IC50pos free drug)) was 1.85 and the “Targeting Index (TI)” value (OCM-1 cells; OCM-1 versus A2058, TI = (IC50neg/IC50pos conjugate)/(IC50neg/IC50pos free drug)) was 2.30. For the same compound, the “Targeting Index (TI)” value (WM983A cells; WM983A versus A2058, TI = (IC50neg/IC50pos conjugate)/(IC50neg/IC50pos free drug)) was 1.90, the “Targeting Index (TI)” value (WM983B cells; WM983B versus A2058, TI = (IC50neg/IC50pos conjugate)/(IC50neg/IC50pos free drug)) was 2.61 and the “Changes in bodyweight, liver mass, general appearance and behavior” value (healthy male BALB/c mice; after 14 days, one i.p. injection 25 mg Dau content/kg, BALB/c male mice) was “no significant changes”. For the same compound, the Acute toxicity (healthy male BALB/c mice; one i.p. injection, up to 25 mg Dau content/kg, healthy BALB/c male mice, 3 mice, 14 days) was “does not show acute toxicity”.

In the case of `CCCC[C@H](NC(C)=O)C(=O)N[C@@H](CCC(=O)O)C(=O)N[C@@H](Cc1c[nH]cn1)C(=O)N[C@H](Cc1ccccc1)C(=O)N[C@@H](CCCNC(=N)N)C(=O)N[C@@H](Cc1c[nH]c2ccccc12)C(=O)NCC(=O)N[C@@H](CCCCNC(=O)CON=C(C)[C@]1(O)Cc2c(O)c3c(c(O)c2[C@@H](O[C@H]2C[C@H](N)[C@H](O)[C@H](C)O2)C1)C(=O)c1c(OC)cccc1C3=O)C(N)=O` [Conj4, Ac-NleEHfRWGK(Dau=Aoa)-NH2] (Ac-[Nle]EH[dF]RWGK(Daunorubicin(13-NOCH2CO))-NH2), the “Normalized liver weight, value line 1” value [5] is reported as 5.23%, the “Normalized liver weight, value line 2” value [5] is reported as 4.34% and the “Normalized liver weight, value line 3” value [5] is reported as 4.47%. For the same compound, the “Normalized liver weight, value line 4” value [5] was 4.50%, the “Normalized liver weight, value line 5” value [5] was 5.35% and the “Normalized liver weight, value line 6” value [5] was 4.70%. For the same compound, the “Normalized liver weight, value line 7” value [5] was 5.11%, the “Normalized liver weight, line printed as "ave"” value [5] was 4.62% and the IC50 (SK-MEL-202 cells; SK-MEL-202, PrestoBlue, 0.003–200 μM in serum-free medium 72 h, mean ± SEM of three independent experiments) was 2.06 ± 0.1 µM. The IC50 (A2058 cells; A2058, PrestoBlue, 0.003–200 μM in serum-free medium 72 h, mean ± SEM of three independent experiments) was 7.15 ± 0.07 µM, the IC50 (OCM-3 cells; OCM-3, PrestoBlue, 0.003–200 μM in serum-free medium 72 h, mean ± SEM of three independent experiments) was 25.47 ± 0.08 µM and the IC50 (OCM-1 cells; OCM-1, PrestoBlue, 0.003–200 μM in serum-free medium 72 h, mean ± SEM of three independent experiments) was 29.68 ± 0.06 µM. It also gave an IC50 (WM983A cells; WM983A, PrestoBlue, 0.003–200 μM in serum-free medium 72 h, mean ± SEM of three independent experiments) of 13.5 ± 0.06 µM and an IC50 (WM983B cells; WM983B, PrestoBlue, 0.003–200 μM in serum-free medium 72 h, mean ± SEM of three independent experiments) of 10.18 ± 0.06 µM.
